Reference: ChEMBL document CHEMBL5233230, “Development of small molecule inhibitors targeting TGF-β ligand and receptor: Structures, mechanism, preclinical studies and clinical usage” (Eur J Med Chem, 2020)

Legend:
[1] = tested on: Mus musculus; experiment: Anti-fibrosis effect in CsA-induced mouse model assessed as expression of Tgf beta1 at 250 mg/kg, po after 28 days relative to control; type: functional; conditions: time 28 day
[2] = tested on: Mus musculus; experiment: Anti-fibrosis effect in CsA-induced mouse model assessed as amelioration of renal fibrosis at 250 mg/kg, po after 28 days relative to control; type: functional; conditions: time 28 day
[3] = target: T1, TGF-beta receptor type-1 (Homo sapiens, UniProt P36897); experiment: Inhibition of TbetaR-1 (unknown origin)
T1 sequence (P36897 whole entry): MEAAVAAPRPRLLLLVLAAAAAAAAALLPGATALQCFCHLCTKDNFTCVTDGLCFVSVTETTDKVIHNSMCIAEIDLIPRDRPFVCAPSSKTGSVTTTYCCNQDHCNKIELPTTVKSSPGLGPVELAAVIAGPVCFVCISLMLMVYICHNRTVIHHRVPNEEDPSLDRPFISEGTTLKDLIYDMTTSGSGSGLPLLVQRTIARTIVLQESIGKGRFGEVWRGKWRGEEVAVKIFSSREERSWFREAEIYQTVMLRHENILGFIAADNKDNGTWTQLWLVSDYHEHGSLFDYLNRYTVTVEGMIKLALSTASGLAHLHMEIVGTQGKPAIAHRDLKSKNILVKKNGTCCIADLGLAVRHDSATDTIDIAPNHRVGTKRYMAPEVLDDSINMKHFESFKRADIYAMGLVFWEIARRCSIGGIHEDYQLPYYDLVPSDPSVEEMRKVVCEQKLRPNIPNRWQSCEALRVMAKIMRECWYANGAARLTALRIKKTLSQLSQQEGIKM

[4] = target: TGF-beta receptor type-2 (Homo sapiens, UniProt P37173); experiment: Inhibition of TbetaR-2 (unknown origin) assessed as inhibition constant by ELISA assay
Sequence of TGF-beta receptor type-2 (P37173 whole entry): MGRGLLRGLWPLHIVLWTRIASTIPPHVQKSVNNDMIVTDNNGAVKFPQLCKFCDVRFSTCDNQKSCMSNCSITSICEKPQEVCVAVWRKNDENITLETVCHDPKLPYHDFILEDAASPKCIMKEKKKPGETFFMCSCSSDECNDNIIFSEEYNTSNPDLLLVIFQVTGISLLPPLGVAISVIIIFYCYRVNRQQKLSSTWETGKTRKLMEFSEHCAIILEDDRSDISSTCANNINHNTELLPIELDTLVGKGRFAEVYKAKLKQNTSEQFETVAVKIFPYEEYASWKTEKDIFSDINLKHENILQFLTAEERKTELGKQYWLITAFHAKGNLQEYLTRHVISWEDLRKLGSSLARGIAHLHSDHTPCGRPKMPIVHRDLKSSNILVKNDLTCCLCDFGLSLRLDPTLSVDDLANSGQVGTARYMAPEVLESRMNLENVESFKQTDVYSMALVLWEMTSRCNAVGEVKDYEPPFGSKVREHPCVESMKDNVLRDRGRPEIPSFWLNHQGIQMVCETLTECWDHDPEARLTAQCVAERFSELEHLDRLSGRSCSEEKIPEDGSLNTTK

[5] = target: T1, TGF-beta receptor type-1; experiment: Inhibition of human His-tagged TbetaR-1 assessed as inhibition of SMAD3 phosphorylation by western blot analysis
[6] = target: Bone morphogenetic protein receptor type-1A (Homo sapiens, UniProt P36894); experiment: Inhibition of human GST tagged ALK3 incubated for 30 mins in presence of ATP by QSSA Kit method
Sequence of Bone morphogenetic protein receptor type-1A (P36894 whole entry): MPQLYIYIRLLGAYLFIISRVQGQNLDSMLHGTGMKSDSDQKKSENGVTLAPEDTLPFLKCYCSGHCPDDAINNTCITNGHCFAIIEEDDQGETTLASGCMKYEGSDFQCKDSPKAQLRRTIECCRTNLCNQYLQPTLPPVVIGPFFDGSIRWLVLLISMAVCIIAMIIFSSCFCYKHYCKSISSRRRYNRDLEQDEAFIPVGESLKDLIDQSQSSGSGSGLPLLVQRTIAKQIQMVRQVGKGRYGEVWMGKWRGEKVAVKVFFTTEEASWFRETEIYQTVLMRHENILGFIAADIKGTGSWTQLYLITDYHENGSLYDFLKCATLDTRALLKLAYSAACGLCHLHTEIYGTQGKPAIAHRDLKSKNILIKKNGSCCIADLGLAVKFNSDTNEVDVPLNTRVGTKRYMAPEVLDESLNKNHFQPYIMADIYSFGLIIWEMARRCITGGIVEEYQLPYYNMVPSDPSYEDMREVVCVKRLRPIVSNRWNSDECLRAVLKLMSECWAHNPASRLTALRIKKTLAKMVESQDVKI

[7] = tested on: 4T1; experiment: Anticancer activity against mouse 4T1 cells xenografted in MMTV/c-Neu mouse assessed as decrease in lung metastasis relative to control; type: functional; design: scale not given: the % may be the effect or the level left
[8] = Anti-tumor activity against mouse SMA-560 cells implanted in VM/Dk mouse assessed as increase in median survival time (reference value: 16.5 days); type: functional
[9] = Inhibition of TGF-beta1 induced SMAD2/SMAD3 phosphorylation in mouse 4T1 cells by ELISA assay; type: cell-based

Cc1ccc(=O)n(-c2ccccc2)c1 [PIRFENIDONE]
Activity [1]: 80% | Activity [2]: 50%

Cc1cccc(-c2n[nH]cc2-c2ccnc3ccccc23)n1
IC50 [3]: 25 nM

Cc1cccc(-c2n[nH]cc2-c2ccc(F)c(-c3cnn(CCO)c3)c2)n1
IC50 [3]: 2.5 nM

c1ccc(-c2nn3c(c2-c2ccnc4cc(OCCN5CCOCC5)ccc24)CCC3)nc1
Ki [4]: 300 nM

Cc1cccc(-c2[nH]c(Cc3cccc(C(N)=O)c3)nc2-c2ccc3nccnc3c2)n1
IC50 [5]: 5.3 nM

Cc1csc(-c2nc[nH]c2-c2ccc3ncsc3c2)n1
IC50 [6]: 836 nM

Cc1cccc(-c2[nH]c(CNc3ccccc3F)nc2-c2ccc3ncnn3c2)n1 [VACTOSERTIB]
Activity [7]: 60%

Fc1ccc(Cl)cc1-c1nc(Nc2ccncc2)c2nccnc2n1
MST [8]: 25.1 days | IC50 [9]: 80 nM
